Experimental data reported in article PMC4624772 (PLoS Pathogens, 2015).

Target: T1, MshE (VC0405) (Vibrio cholerae, UniProt Q9KUV7)
T1 construct: gene VC_0405
Test: biochemical

T1 sequence (Q9KUV7 1-575): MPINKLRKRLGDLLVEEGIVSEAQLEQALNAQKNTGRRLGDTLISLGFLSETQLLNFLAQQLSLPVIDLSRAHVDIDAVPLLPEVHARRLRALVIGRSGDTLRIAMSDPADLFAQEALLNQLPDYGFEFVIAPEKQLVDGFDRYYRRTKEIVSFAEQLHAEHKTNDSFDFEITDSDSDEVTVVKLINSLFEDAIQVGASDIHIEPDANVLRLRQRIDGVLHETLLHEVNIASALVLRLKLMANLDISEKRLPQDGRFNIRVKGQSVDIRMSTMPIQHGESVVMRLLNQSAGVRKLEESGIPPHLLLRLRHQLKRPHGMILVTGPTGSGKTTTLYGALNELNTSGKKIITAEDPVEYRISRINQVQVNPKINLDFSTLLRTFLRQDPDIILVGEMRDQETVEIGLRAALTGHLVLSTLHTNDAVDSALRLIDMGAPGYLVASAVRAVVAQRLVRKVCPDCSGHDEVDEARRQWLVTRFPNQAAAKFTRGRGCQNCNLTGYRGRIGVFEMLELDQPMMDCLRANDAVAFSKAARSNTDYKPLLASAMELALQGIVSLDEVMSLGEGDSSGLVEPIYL

Work on `Nc1nc2c(ncn2[C@@H]2O[C@@H]3CO[P@](=O)(O)O[C@H]4[C@@H](O)[C@H](n5cnc6c(=O)[nH]c(N)nc65)O[C@@H]4CO[P@](=O)(O)O[C@H]3[C@H]2O)c(=O)[nH]1` [c-di-GMP] yielded a Kd of 1900 ± 400 nM.
